Data from patent US6451330B1, “High skin friction cosmetic creams with retinoids” (Unilever Home & Personal Care, USA, division of Conopco, …, priority 2000, dated 2002).

Test: Retinoid solubility in oil
Format: physicochemical
Procedure: Retinoid solubility in oil is determined by the following procedure. A known weight of pure retinoid in excess of the expected solubility limit in the oil is added in an oil and methanol is added to the mixture to dissolve all retinoid crystals. Nitrogen sparging is used to ensure all methanol has evaporated from the oil. Retinoid is allowed to recrystallize overnight. The sample is filtered through a 0.45 micron filter. Known dilutions of the filtrate in isopropanol are measured by UV spectroscopy at an appropriate wavelength (325 nm for retinol) and the concentration of retinoid determined against calibration standards of retinoid in isopropanol.

SOLUBILITY, WT % (retinol crystals in C12-15 Alkyl benzoate): 85 WT %
SOLUBILITY, WT % (retinol crystals in Cetiol OE): 45 WT %
SOLUBILITY, WT % (retinol crystals in Cyclomethicone): 2.7 WT %
SOLUBILITY, WT % (retinol crystals in Dimethicone): 0.49 WT %
SOLUBILITY, WT % (retinol crystals in Isostearyl palmitate): 44 WT %
SOLUBILITY, WT % (retinol crystals in Mineral oil): 34.2 WT %
SOLUBILITY, WT % (retinol crystals in Triolein/Squalene (6:1)): 56.4 WT %
Structure (SMILES): CC1=C(/C=C/C(C)=C/C=C/C(C)=C/CO)C(C)(C)CCC1 [retinol]
